According to ChEMBL document CHEMBL1152187, “Synthesis of C4-fluorinated solamins and their growth inhibitory activity against human cancer cell lines” (2008):

Key:
Format in all cases: functional
[1] = system: LOX IMVI; assay: Growth inhibition of human LOXIMVI cells by sulforhodamine B assay
[2] = system: MKN-74; assay: Growth inhibition of human MKN74 cells by sulforhodamine B assay
[3] = system: MKN-45; assay: Growth inhibition of human MKN45 cells by sulforhodamine B assay
[4] = system: DU-145; assay: Growth inhibition of human DU145 cells by sulforhodamine B assay
[5] = system: OVCAR-5; assay: Growth inhibition of human OVCAR5 cells by sulforhodamine B assay
[6] = system: OVCAR-3; assay: Growth inhibition of human OVCAR-3 cells by sulforhodamine B assay
[7] = system: KM12; assay: Growth inhibition of human KM12 cells by sulforhodamine B assay
[8] = system: MDA-MB-231; assay: Growth inhibition of human MDA-MB-231 cells by sulforhodamine B assay
[9] = system: SF-539; assay: Growth inhibition of human SF539 cells by sulforhodamine B assay
[10] = system: HCT-15; assay: Growth inhibition of human HCT15 cells by sulforhodamine B assay
[11] = Growth inhibition of human MKN1 cells by sulforhodamine B assay; details: MKN-1
[12] = system: PC-3; assay: Growth inhibition of human PC3 cells by sulforhodamine B assay
[13] = system: SNB-78; assay: Growth inhibition of human SNB-78 cells by sulforhodamine B assay
[14] = system: St-4; assay: Growth inhibition of human St-4 cells by sulforhodamine B assay
[15] = system: ACHN; assay: Growth inhibition of human ACHN cells by sulforhodamine B assay
[16] = system: A549; assay: Growth inhibition of human A549 cells by sulforhodamine B assay
[17] = system: NCI-H460; assay: Growth inhibition of human NCI-H460 cells by sulforhodamine B assay
[18] = system: DMS-273; assay: Growth inhibition of human DMS273 cells by sulforhodamine B assay
[19] = system: SK-OV-3; assay: Growth inhibition of human SKOV3 cells by sulforhodamine B assay
[20] = system: HCT-116; assay: Growth inhibition of human HCT116 cells by sulforhodamine B assay
[21] = system: OVCAR-4; assay: Growth inhibition of human OVCAR4 cells by sulforhodamine B assay
[22] = Growth inhibition of human BSY1 cells by sulforhodamine B assay; details: BSY-1
[23] = system: NCI-H522; assay: Growth inhibition of human NCI-H522 cells by sulforhodamine B assay
[24] = system: MKN-28; assay: Growth inhibition of human MKN28 cells by sulforhodamine B assay
[25] = Growth inhibition of human RXF631L cells by sulforhodamine B assay; details: RXF 631
[26] = system: OVCAR-8; assay: Growth inhibition of human OVCAR8 cells by sulforhodamine B assay
[27] = system: MCF7; assay: Growth inhibition of human MCF7 cells by sulforhodamine B assay
[28] = system: SF-295; assay: Growth inhibition of human SF295 cells by sulforhodamine B assay
[29] = system: NCI-H226; assay: Growth inhibition of human NCI-H226 cells by sulforhodamine B assay
[30] = system: U-251; assay: Growth inhibition of human U251 cells by sulforhodamine B assay
[31] = system: SNB-75; assay: Growth inhibition of human SNB75 cells by sulforhodamine B assay
[32] = system: HCC 2998; assay: Growth inhibition of human HCC2998 cells by sulforhodamine B assay
[33] = system: SF-268; assay: Growth inhibition of human SF268 cells by sulforhodamine B assay
[34] = system: DMS-114; assay: Growth inhibition of human DMS114 cells by sulforhodamine B assay
[35] = system: MKN-7; assay: Growth inhibition of human MKN7 cells by sulforhodamine B assay
[36] = system: HT-29; assay: Growth inhibition of human HT-29 cells by sulforhodamine B assay
[37] = Growth inhibition of human HBC5 cells by sulforhodamine B assay
[38] = system: NCI-H23; assay: Growth inhibition of human NCI-H23 cells by sulforhodamine B assay
[39] = Growth inhibition of human HBC4 cells by sulforhodamine B assay

| Compound | GI50 [1] | GI50 [2] | GI50 [3] | GI50 [4] | GI50 [5] | GI50 [6] | GI50 [7] | GI50 [8] | GI50 [9] | GI50 [10] | GI50 [11] | GI50 [12] | GI50 [13] | GI50 [14] | GI50 [15] | GI50 [16] | GI50 [17] | GI50 [18] | GI50 [19] | GI50 [20] | also measured |
| --- | --- | --- | --- | --- | --- | --- | --- | --- | --- | --- | --- | --- | --- | --- | --- | --- | --- | --- | --- | --- | --- |
| CCCCCCCCCCCC[C@@H](O)[C@H]1CC[C@H]([C@H](O)CCCCCCCCCC[C@@H](F)CC2=C[C@H](C)OC2=O)O1 | 6.5 µM | > 100 µM | > 100 µM | > 100 µM | > 100 µM | > 100 µM | > 100 µM | > 100 µM | > 100 µM | > 100 µM | > 100 µM | > 100 µM | > 100 µM | 74 µM | > 100 µM | > 100 µM | > 100 µM | > 100 µM | > 100 µM | 2 µM | GI50 [21]: > 100 µM; GI50 [22]: > 100 µM; GI50 [23]: 25 µM; GI50 [24]: 41 µM; GI50 [25]: > 100 µM; GI50 [26]: 62 µM; GI50 [27]: 56 µM; GI50 [28]: 37 µM; GI50 [29]: 58 µM; GI50 [30]: > 100 µM; GI50 [31]: 84 µM; GI50 [32]: > 100 µM; GI50 [33]: > 100 µM; GI50 [34]: 0.26 µM; GI50 [35]: 0.96 µM; GI50 [36]: > 100 µM; GI50 [37]: > 100 µM; GI50 [38]: 23 µM; GI50 [39]: > 100 µM |
| CCCCCCCCCCCC[C@@H](O)[C@H]1CC[C@H]([C@H](O)CCCCCCCCCC[C@@H](O)CC2=C[C@H](C)OC2=O)O1 [MURISOLIN] | 1.9 µM | 4.6 µM | > 100 µM | > 100 µM | > 100 µM | 6.9 µM | > 100 µM | > 100 µM | 88 µM | 51 µM | 20 µM | 17 µM | 78 µM | 41 µM | > 100 µM | 96 µM | > 100 µM | 72 µM | > 100 µM | 3.7 µM | GI50 [21]: 6.9 µM; GI50 [22]: 8.3 µM; GI50 [23]: 3.6 µM; GI50 [24]: 2.8 µM; GI50 [25]: 40 µM; GI50 [26]: 38 µM; GI50 [27]: 3.9 µM; GI50 [28]: 7.3 µM; GI50 [29]: 29 µM; GI50 [30]: 7.3 µM; GI50 [31]: 39 µM; GI50 [32]: > 100 µM; GI50 [33]: > 100 µM; GI50 [34]: < 0.01 µM; GI50 [35]: 0.7 µM; GI50 [36]: > 100 µM; GI50 [37]: 9.7 µM; GI50 [38]: 0.22 µM; GI50 [39]: > 100 µM |
| CCCCCCCCCCCC[C@@H](O)[C@H]1CC[C@H]([C@H](O)CCCCCCCCCC[C@H](F)CC2=C[C@H](C)OC2=O)O1 | 97 µM | > 100 µM | 43 µM | > 100 µM | > 100 µM | > 100 µM | > 100 µM | > 100 µM | > 100 µM | > 100 µM | > 100 µM | 84 µM | > 100 µM | > 100 µM | > 100 µM | > 100 µM | > 100 µM | > 100 µM | > 100 µM | 27 µM | GI50 [21]: > 100 µM; GI50 [22]: 69 µM; GI50 [23]: 16 µM; GI50 [24]: > 100 µM; GI50 [25]: > 100 µM; GI50 [26]: > 100 µM; GI50 [27]: 37 µM; GI50 [28]: 31 µM; GI50 [29]: 40 µM; GI50 [30]: > 100 µM; GI50 [31]: 58 µM; GI50 [32]: > 100 µM; GI50 [33]: > 100 µM; GI50 [34]: 0.46 µM; GI50 [35]: 19 µM; GI50 [36]: 92 µM; GI50 [37]: > 100 µM; GI50 [38]: 5.1 µM; GI50 [39]: > 100 µM |
| CCCCCCCCCCCC[C@@H](O)[C@H]1CC[C@H]([C@H](O)CCCCCCCCCCCCC2=C[C@H](C)OC2=O)O1 [REL-SOLAMIN] | 29 µM | > 100 µM | > 100 µM | > 100 µM | > 100 µM | > 100 µM | > 100 µM | > 100 µM | > 100 µM | > 100 µM | > 100 µM | > 100 µM | > 100 µM | > 100 µM | > 100 µM | > 100 µM | > 100 µM | > 100 µM | > 100 µM | > 100 µM | GI50 [21]: > 100 µM; GI50 [22]: > 100 µM; GI50 [23]: 58 µM; GI50 [24]: 14 µM; GI50 [25]: > 100 µM; GI50 [26]: > 100 µM; GI50 [27]: 71 µM; GI50 [28]: 40 µM; GI50 [29]: > 100 µM; GI50 [30]: > 100 µM; GI50 [31]: > 100 µM; GI50 [32]: > 100 µM; GI50 [33]: > 100 µM; GI50 [34]: 4.3 µM; GI50 [35]: 13 µM; GI50 [36]: > 100 µM; GI50 [37]: > 100 µM; GI50 [38]: 73 µM; GI50 [39]: > 100 µM |
